Test results from patent US11229623B2 (GlaxoSmithKline Intellectual Property (No.2) Limited, priority 2016, dated 2022).
Counter-ions that a name gives are not always drawn.

Molecular target: T1, human TRPV4 (Homo sapiens, UniProt Q9HBA0)
T1 construct: expressed in transfected cells; host or cells: BHK/AC9 cells transduced with BacMam virus
Assay: FLIPR assay for hTRPV4 expressed in BHK cells: inhibition of Agonist Compound-induced calcium signal
Assay type: cell-based
Conditions: hTRPV4 in BHK/AC9 cells, FLIPR calcium signal, agonist at EC80; reported as range class; read-out: IC50
Experimental: FLIPR Assay for hTRPV4 Expressed in BHK Cells:
TRPV4 channel activation results in an influx of divalent and monovalent cations including calcium. The resulting changes in intracellular calcium were monitored using a calcium specific fluorescent dye Fluo-4 (MDS Analytical Technologies). BHK/AC9 cells transduced with BacMam virus expressing the human TRPV4 gene at a MOI of 78 were plated in a 384 well poly-D lysine coated plate (15,000 cells/well in 50 μL culture medium containing DMEM/F12 with 15 mM HEPES, 10% FBS, 1% Penicillin-Streptomycin and 1% L-glutamine). Cells were incubated for 24 hours at 37° C. and 5% CO2. Culture medium was then aspirated using a Tecan plate-washer and replaced with 20 μL/well of dye loading buffer: HBSS, 500 μM Brilliant Black (MDS Analytical Technologies), and 2 μM Fluo-4 AM. Dye loaded plates were then incubated in the dark at room temperature for 1-1.5 hours.

T1 sequence (Q9HBA0 whole entry): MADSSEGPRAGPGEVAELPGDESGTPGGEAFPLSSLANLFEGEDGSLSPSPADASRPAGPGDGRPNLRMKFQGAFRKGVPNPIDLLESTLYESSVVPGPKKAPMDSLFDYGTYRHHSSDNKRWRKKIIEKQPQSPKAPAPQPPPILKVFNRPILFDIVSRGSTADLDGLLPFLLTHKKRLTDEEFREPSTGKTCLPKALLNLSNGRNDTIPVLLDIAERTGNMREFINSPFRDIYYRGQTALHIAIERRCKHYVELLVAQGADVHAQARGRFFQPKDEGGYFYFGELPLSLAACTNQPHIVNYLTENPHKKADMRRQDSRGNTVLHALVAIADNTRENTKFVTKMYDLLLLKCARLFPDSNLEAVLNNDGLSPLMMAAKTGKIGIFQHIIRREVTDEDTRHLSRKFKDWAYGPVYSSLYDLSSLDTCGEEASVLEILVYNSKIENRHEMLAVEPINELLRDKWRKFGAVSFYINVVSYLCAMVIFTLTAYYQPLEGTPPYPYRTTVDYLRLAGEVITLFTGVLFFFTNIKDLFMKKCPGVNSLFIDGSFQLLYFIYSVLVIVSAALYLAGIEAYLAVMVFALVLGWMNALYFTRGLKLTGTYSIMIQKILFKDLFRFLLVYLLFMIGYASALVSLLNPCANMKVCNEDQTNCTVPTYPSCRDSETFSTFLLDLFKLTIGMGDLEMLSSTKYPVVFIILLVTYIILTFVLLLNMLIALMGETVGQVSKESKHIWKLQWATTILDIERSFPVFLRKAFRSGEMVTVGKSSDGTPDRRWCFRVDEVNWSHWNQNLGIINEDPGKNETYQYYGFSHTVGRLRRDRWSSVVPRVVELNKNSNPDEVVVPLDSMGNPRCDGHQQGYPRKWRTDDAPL

SMILES	IC50 [nM]
N#Cc1ccc(O[C@H]2CN(S(=O)(=O)c3cccc(OC(F)(F)F)n3)C[C@@]2(O)CO)cc1F [Example 132, 2-fluoro-4-(((3S,4R)-4-hydroxy-4-(hydroxymethyl)-1-((6-(trifluoromethoxy)pyridin-2-yl)sulfonyl)pyrrolidin-3-yl)oxy)benzonitrile]	10 to 100
N#Cc1cc(OCC(F)(F)F)c(O[C@H]2CN(S(=O)(=O)c3ccccc3C#N)C[C@@]2(O)CO)cc1F [Example 173, 4-(((3S,4R)-1-((2-cyanophenyl)sulfonyl)-4-hydroxy-4-(hydroxymethyl)pyrrolidin-3-yl)oxy)-2-fluoro-5-(2,2,2-trifluoroethoxy) benzonitrile]	0.1 to 10
N#Cc1ccc(S(=O)(=O)N2C[C@H](Oc3ccc(C#N)c(F)c3)[C@@](O)(CO)C2)c(Cl)c1 [Example 141, 4-(((3S,4S)-1-((2-chloro-4-cyanophenyl)sulfonyl)-4-hydroxy-4-(hydroxymethyl)pyrrolidin-3-yl)oxy)-2-fluorobenzonitrile]	10 to 100
Cc1nc(C#N)ccc1S(=O)(=O)N1C[C@H](Oc2ccc(C#N)c(F)c2)[C@](O)(CO)C1 [Example 131, 5-(((3R,4S)-4-(4-cyano-3-fluorophenoxy)-3-hydroxy-3-(hydroxymethyl)pyrrolidin-1-yl)sulfonyl)-6-methylpicolinonitrile]	10 to 100
N#Cc1cc(C(F)(F)F)ccc1S(=O)(=O)N1C[C@H](Oc2cc(F)c(C#N)c(F)c2)[C@](O)(CO)C1 [Example 20, 4-(((3S,4R)-1-((2-cyano-4-(trifluoromethyl)phenyl)sulfonyl)-4-hydroxy-4-(hydroxymethyl)pyrrolidin-3-yl)oxy)-2,6-difluorobenzonitrile]	0.1 to 10
N#Cc1ncc(O[C@H]2CN(S(=O)(=O)c3ccc(C(F)(F)F)cc3C#N)C[C@@]2(O)CO)cn1 [Example 13, 5-(((3S,4R)-1-((2-cyano-4-(trifluoromethyl)phenyl)sulfonyl)-4-hydroxy-4-(hydroxymethyl)pyrrolidin-3-yl)oxy)pyrimidine-2-carbonitrile]	10 to 100
COC(=O)c1cc(C#N)ccc1O[C@H]1CN(S(=O)(=O)c2ccc(C(F)(F)F)cc2C#N)C[C@@]1(O)CO [Example 34, methyl 5-cyano-2-(((3S,4R)-1-((2-cyano-4-(trifluoromethyl)phenyl)sulfonyl)-4-hydroxy-4-(hydroxymethyl)pyrrolidin-3-yl)oxy)benzoate]	0.1 to 10
N#Cc1cc(C(F)(F)F)ccc1S(=O)(=O)N1C[C@H](Oc2ccc(F)cc2)[C@](O)(CO)C1 [Example 47, 2-(((3R,4S)-4-(4-fluorophenoxy)-3-hydroxy-3-(hydroxymethyl)pyrrolidin-1-yl)sulfonyl)-5-(trifluoromethyl)benzonitrile]	10 to 100
N#Cc1cc(C(F)(F)F)ccc1S(=O)(=O)N1C[C@H](Oc2ccc(F)c(Cl)c2)[C@](O)(CO)C1 [Example 41, 2-(((3R,4S)-4-(3-chloro-4-fluorophenoxy)-3-hydroxy-3-(hydroxymethyl)pyrrolidin-1-yl)sulfonyl)-5-(trifluoromethyl)benzonitrile]	10 to 100
N#Cc1ccc(O[C@H]2CN(S(=O)(=O)c3ccc(C(F)(F)F)cc3Cl)C[C@@]2(O)CO)cc1 [Example 49, 4-(((3S,4R)-1-((2-chloro-4-(trifluoromethyl)phenyl)sulfonyl)-4-hydroxy-4-(hydroxymethyl)pyrrolidin-3-yl)oxy)benzonitrile]	10 to 100
Cc1ccc(O[C@H]2CN(S(=O)(=O)c3ccc(C(F)(F)F)cc3C#N)C[C@@]2(O)CO)cc1 [Example 51, 2-(((3R,4S)-3-hydroxy-3-(hydroxymethyl)-4-(p-tolyloxy)pyrrolidin-1-yl)sulfonyl)-5-(trifluoromethyl)benzonitrile]	10 to 100
N#Cc1ccc(O[C@H]2CN(S(=O)(=O)c3ccc(C#Cc4ccccc4)cn3)C[C@@]2(O)CO)cc1F [Example 230, 2-fluoro-4-(((3S,4R)-4-hydroxy-4-(hydroxymethyl)-1-((5-(phenylethynyl)pyridin-2-yl)sulfonyl)pyrrolidin-3-yl)oxy)benzonitrile]	0.1 to 10
N#Cc1ccc(O[C@H]2CN(S(=O)(=O)c3c(Cl)nc4sccn34)C[C@@]2(O)CO)cc1F [Example 90, 4-(((3S,4R)-1-((6-chloroimidazo[2,1-b]thiazol-5-yl)sulfonyl)-4-hydroxy-4-(hydroxymethyl)pyrrolidin-3-yl)oxy)-2-fluorobenzonitrile]	10 to 100
N#Cc1ccc(O[C@H]2CN(S(=O)(=O)c3sc(Cl)nc3Cl)C[C@@]2(O)CO)cc1F [Example 88, 4-(((3S,4R)-1-((2,4-dichlorothiazol-5-yl)sulfonyl)-4-hydroxy-4-(hydroxymethyl)pyrrolidin-3-yl)oxy)-2-fluorobenzonitrile]	10 to 100
N#Cc1cc(C(F)(F)F)ccc1S(=O)(=O)N1C[C@H](Oc2ccc(C(F)(F)F)nc2)[C@](O)(CO)C1 [Example 42, 2-(((3R,4S)-3-hydroxy-3-(hydroxymethyl)-4-((6-(trifluoromethyl)pyridin-3-yl)oxy)pyrrolidin-1-yl)sulfonyl)-5-(trifluoromethyl)benzonitrile]	10 to 100

Results, then the compound that gave them:

IC50 [nM]	SMILES
0.1 to 10	N#Cc1ccc(O[C@H]2CN(S(=O)(=O)c3ccccc3I)C[C@@]2(O)CO)cc1F [Example 119, 2-fluoro-4-(((3S,4R)-4-hydroxy-4-(hydroxymethyl)-1-((2-iodophenyl)sulfonyl)pyrrolidin-3-yl)oxy)benzonitrile]
10 to 100	C[C@@H](O)[C@]1(O)CN(S(=O)(=O)c2ccc(C(F)F)cn2)C[C@@H]1Oc1ccc(C#N)c(F)c1 [Example 211, 4-(((3S,4R)-1-((5-(difluoromethyl)pyridin-2-yl)sulfonyl)-4-hydroxy-4-((R)-1-hydroxyethyl)pyrrolidin-3-yl)oxy)-2-fluorobenzonitrile]
10 to 100	N#Cc1ccc(S(=O)(=O)N2C[C@H](Oc3ccc(C#N)c(F)c3)[C@](O)(CO)C2)nc1 [Example 231, 6-(((3R,4S)-4-(4-cyano-3-fluorophenoxy)-3-hydroxy-3-(hydroxymethyl)pyrrolidin-1-yl)sulfonyl)nicotinonitrile]
0.1 to 10	N#Cc1ccc(O[C@H]2CN(S(=O)(=O)c3ccc(Cl)cc3Br)C[C@@]2(O)CO)cc1F [Example 120, 4-(((3S,4R)-1-((2-bromo-4-chlorophenyl)sulfonyl)-4-hydroxy-4-(hydroxymethyl)pyrrolidin-3-yl)oxy)-2-fluorobenzonitrile]
10 to 100	N#Cc1ccc(O[C@H]2CN(S(=O)(=O)c3cccc(Cl)c3Cl)C[C@@]2(O)CO)cc1F [Example 94, 4-(((3S,4R)-1-((2,3-dichlorophenyl)sulfonyl)-4-hydroxy-4-(hydroxymethyl)pyrrolidin-3-yl)oxy)-2-fluorobenzonitrile]
0.1 to 10	N#Cc1ccc(O[C@H]2CN(S(=O)(=O)c3ccc(F)cc3C#N)C[C@]2(O)CO)cc1F [Example 138, 4-(((3S,4S)-1-((2-cyano-4-fluorophenyl)sulfonyl)-4-hydroxy-4-(hydroxymethyl)pyrrolidin-3-yl)oxy)-2-fluorobenzonitrile]
10 to 100	N#Cc1ccc(O[C@H]2CN(S(=O)(=O)c3ccc(Cl)nc3)C[C@@]2(O)CO)cc1F [Example 91, 4-(((3S,4R)-1-((6-chloropyridin-3-yl)sulfonyl)-4-hydroxy-4-(hydroxymethyl)pyrrolidin-3-yl)oxy)-2-fluorobenzonitrile]
10 to 100	N#Cc1cc(F)ccc1S(=O)(=O)N1C[C@H](Oc2ccc(Cl)cc2)[C@@](O)(CO)C1 [Example 147, 2-(((3S,4S)-4-(4-chlorophenoxy)-3-hydroxy-3-(hydroxymethyl)pyrrolidin-1-yl)sulfonyl)-5-fluorobenzonitrile]
0.1 to 10	N#Cc1ccc(O[C@H]2CN(S(=O)(=O)c3ccc(Br)cc3C#N)C[C@]2(O)CO)cc1F [Example 143, 4-(((3S,4S)-1-((4-bromo-2-cyanophenyl)sulfonyl)-4-hydroxy-4-(hydroxymethyl)pyrrolidin-3-yl)oxy)-2-fluorobenzonitrile]
10 to 100	N#Cc1ccc(O[C@H]2CN(S(=O)(=O)c3ccc(C(F)(F)F)c(F)c3)C[C@@]2(O)CO)cc1F [Example 116, 2-fluoro-4-(((3S,4R)-1-((3-fluoro-4-(trifluoromethyl)phenyl)sulfonyl)-4-hydroxy-4-(hydroxymethyl)pyrrolidin-3-yl)oxy)benzonitrile]
10 to 100	N#Cc1ccc(O[C@H]2CN(S(=O)(=O)c3ccc(Cl)cn3)C[C@@]2(O)CN)cc1F [Example 233, 4-(((3S,4S)-4-(aminomethyl)-1-((5-chloropyridin-2-yl)sulfonyl)-4-hydroxypyrrolidin-3-yl)oxy)-2-fluorobenzonitrile, Hydrochloride]
0.1 to 10	C[C@@H](O)[C@]1(O)CN(S(=O)(=O)c2ccc(I)cc2)C[C@@H]1Oc1ccc(C#N)c(F)c1 [Example 209, 2-fluoro-4-(((3S,4R)-4-hydroxy-4-((R)-1-hydroxyethyl)-1-((4-iodophenyl)sulfonyl)pyrrolidin-3-yl)oxy)benzonitrile]
10 to 100	C[C@@H](O)[C@]1(O)CN(S(=O)(=O)c2ccc(C(F)F)nc2)C[C@@H]1Oc1ccc(C#N)c(F)c1 [Example 212, 4-(((3S,4R)-1-((6-(difluoromethyl)pyridin-3-yl)sulfonyl)-4-hydroxy-4-((R)-1-hydroxyethyl)pyrrolidin-3-yl)oxy)-2-fluorobenzonitrile]
0.1 to 10	N#Cc1ccc(O[C@H]2CN(S(=O)(=O)c3ccc(Br)cc3C#N)C[C@@]2(O)CO)cc1F [Example 67, 4-(((3S,4R)-1-((4-bromo-2-cyanophenyl)sulfonyl)-4-hydroxy-4-(hydroxymethyl)pyrrolidin-3-yl)oxy)-2-fluorobenzonitrile]
